{"source": "patent US20110312996A1", "about": "“NOVEL INHIBITORS OF HEPATITIS C VIRUS REPLICATION” (priority 2010, published 2011)", "note": "pEC50: −log10 of the molar value."}
{"tested_on": "Huh7 cells containing HCV replicons with an integrated luciferase reporter gene", "assay": "HCV Replicon Assay (luciferase reporter)", "type": "cell-based", "details": "Hepatitis C virus, Huh-7, 48 h, read-out: EC50 nM", "procedure": "(§1) Huh7 cells containing HCV replicons with an integrated luciferase reporter gene are maintained at 37° C. in 5% CO2 in Dulbecco's modified Eagle's medium (DMEM; Mediatech, Herndon, Va.) containing 10% heat-inactivated fetal bovine serum (FBS; Mediatech, Herndon, Va.), 2 mM L-glutamine (Cambrex Bioscience, Walkersville, Md.), 1% non essential amino acids (Lonza, Walkersville, Md.), 50 IU/mL penicillin (Mediatech, Herndon, Va.), […] streptomycin (Mediatech, Herndon, Va.) and 0.5 mg/mL G418 (Promega, Madison, Wis.). Cells are sub-divided 1:3 or 4 every 2-3 days.\n(§2) 24 h prior to the assay, Huh7 cells containing sub-genomic HCV replicons are collected, counted, and plated in Nunclon 96-well tissue culture plates (ThermoFisher, Rochester, N.Y.) at 5000 cells/well in […] standard maintenance medium (above) and incubated in the conditions above. To initiate the assay, culture medium is removed, and replaced with […] maintenance media lacking G418. Test compounds are serially diluted three-fold in dimethyl sulfoxide (DMSO) in two duplicate rows for each EC50 determination. These compound solutions are diluted ten-fold in DMEM lacking serum and G418. […] of these compound solutions in media are added to duplicate tissue culture plates. The final volume is 100 μL with a DMSO concentration of 1%. Compound concentrations are adjusted to appropriately define a dose response curve. Typical dilution series range from […] to 1.69 nM final concentrations to 1 nM to 16.9 fM final. Plates are incubated at 37° C. for approximately 48 hr.\n(§3) Following incubation, media is removed from one of the two duplicate plates and replicon-reporter luciferase activity is measured using a Bright-Glo luciferase assay kit (Promega, Madison, Wis.) according to manufacturer's instructions. Semi-log plots of luciferase activity versus the logarithm of compound concentration are fit to a 4-parameter logistic function using XLfit software (IDBS Inc., Guildford, UK) to determine EC50.", "units": {"EC50": "nM"}}
{"smiles": "COC(=O)N[C@H](C(=O)N1CCC[C@H]1C(=O)Nc1ccc2cc(-c3ccccc3)ccc2c1)C(C)C", "note": "[Compound 502]", "EC50": "> 100"}
{"tested_on": "Huh7 cells containing HCV replicons with an integrated luciferase reporter gene", "assay": "HCV Replicon Assay (luciferase reporter)", "type": "cell-based", "details": "Hepatitis C virus, Huh-7; Huh7 sub-genomic HCV replicon, luciferase activity, approximately 48 hr incubation; read-out: EC50", "procedure": "as §1, §2, §3"}
{"smiles": "COC(=O)N[C@H](C(=O)N1CCC[C@H]1c1nc(-c2ccc(-c3ccc(-c4c[nH]c([C@@H]5CCCN5C(=O)[C@@H](NC(=O)OC)c5ccc(F)cc5)n4)cc3)cc2)c[nH]1)c1ccc(F)cc1", "note": "[Compound 421]", "pEC50": "> 8.00"}
{"smiles": "COC(=O)N[C@H](C(=O)N1CCC[C@H]1c1nc2ccc(-c3ccc(-c4ccc5nc([C@@H]6CCCN6C(=O)[C@@H](NC(=O)OC)c6ccc(F)cc6)[nH]c5c4)cc3)cc2[nH]1)c1ccc(F)cc1", "note": "[Compound 422]", "pEC50": "> 8.00"}
{"smiles": "COC(=O)N[C@H](C(=O)N1CCC[C@H]1c1nc(-c2ccc(-c3ccc(-c4c[nH]c([C@@H]5CCCN5C(=O)[C@@H](NC(=O)OC)C(C(F)(F)F)C(F)(F)F)n4)cc3)cc2)c[nH]1)C(C(F)(F)F)C(F)(F)F", "note": "[Compound 423]", "pEC50": "> 8.00"}
{"smiles": "COC(=O)N[C@H](C(=O)N1CCC[C@H]1c1nc(-c2ccc(-c3ccc(-c4c[nH]c([C@@H]5CCCN5C(=O)[C@@H](NC(=O)OC)c5cccc(F)c5)n4)cc3)cc2)c[nH]1)c1cccc(F)c1", "note": "[Compound 424]", "pEC50": "> 8.00"}
{"smiles": "COC(=O)N[C@H](C(=O)N1CCC[C@H]1C(=O)OCC(=O)c1ccc(N2CCN(Cc3ccccc3)CC2)cc1)C(C)C", "note": "[Compound 501]", "pEC50": "< 7.00"}
{"smiles": "COC(=O)N[C@H](C(=O)N1CCC[C@H]1c1nc(-c2ccccc2)c[nH]1)C(C)C", "note": "[Compound 504]", "pEC50": "< 7.00"}
{"smiles": "COc1ccc2cc(-c3c[nH]c([C@@H]4CCCN4C(=O)OC(C)(C)C)n3)ccc2c1", "note": "[Compound 505]", "pEC50": "< 7.00"}
{"smiles": "COC(=O)N[C@H](C(=O)N1CCC[C@H]1C(=O)NCc1ccc(-c2ccc(-c3c[nH]c([C@@H]4CCCN4C(=O)[C@@H](NC(=O)OC)C(C)C)n3)cc2)cc1)C(C)C", "note": "[Compound 506]", "pEC50": "> 8.00"}
{"smiles": "COC(=O)N[C@H](C(=O)N1CCC[C@H]1c1nc(-c2ccc(-c3ccc(-c4c[nH]c([C@@H]5CCCN5C(=O)[C@@H](NC(=O)OC)C(C)C)n4)c4c3CCC4)c3c2CCC3)c[nH]1)C(C)C", "note": "[Compound 601]", "pEC50": "> 8.00"}
{"smiles": "COC(=O)N[C@H](C(=O)N1CCC[C@H]1c1nc(-c2ccc(-c3ccc(-c4c[nH]c([C@@H]5CCCN5C(=O)[C@@H](NC(=O)OC)C(C)C)n4)c4ocnc34)c3ncoc23)c[nH]1)C(C)C", "note": "[Compound 602]", "pEC50": "> 8.00"}
{"smiles": "COC(=O)NC(C(=O)N1CCC[C@H]1c1nc(-c2ccc(-c3ccc(-c4c[nH]c(N5CCCN5C(=O)[C@@H](NC(=O)OC)C(C)C)n4)c4scnc34)c3ncsc23)c[nH]1)C(C)C", "note": "(stereo partly drawn) [Compound 603]", "pEC50": "> 8.00"}
{"smiles": "COC(=O)N[C@H](C(=O)N1CCC[C@@]1(C)c1nc(-c2ccc(-c3ccc(-c4c[nH]c([C@]5(C)CCCN5C(=O)[C@@H](NC(=O)OC)C(C)C)n4)c4c3CCC4)c3c2CCC3)c[nH]1)C(C)C", "note": "[Compound 604]", "pEC50": "> 8.00"}
{"smiles": "COC(=O)N[C@H](C(=O)N1CCC[C@H]1c1nc(-c2ccc(-c3ccc(-c4c[nH]c([C@]5(C)CCCN5C(=O)[C@@H](NC(=O)OC)C(C)C)n4)c4c3CCC4)c3c2CCC3)c[nH]1)C(C)C", "note": "[Compound 605]", "pEC50": "> 8.00"}
{"smiles": "COC(=O)N[C@H]1CC[C@H]2CC[C@@H](c3nc(-c4ccc(-c5ccc(-c6c[nH]c([C@@H]7CC[C@@H]8CC[C@H](NC(=O)OC)C(=O)N87)n6)cc5)cc4)c[nH]3)N2C1=O", "note": "[Compound 801]", "pEC50": "< 7.00"}
{"smiles": "COC(=O)N[C@H]1CC[C@H]2CC[C@@H](C(=O)Nc3ccc(/C=C/c4ccc(NC(=O)[C@@H]5CC[C@@H]6CC[C@H](NC(=O)OC)C(=O)N65)cc4)cc3)N2C1=O", "note": "[Compound 802]", "pEC50": "< 7.00"}
{"smiles": "COC(=O)N[C@H]1CC[C@H]2CC[C@@H](c3nc(-c4ccc(-c5ccc(-c6c[nH]c([C@@H]7CCCN7C(=O)[C@@H](NC(=O)OC)C(C)C)n6)cc5)cc4)c[nH]3)N2C1=O", "note": "[Compound 803]", "pEC50": "> 8.00"}
{"smiles": "COC(=O)N[C@H]1CC[C@@H]2CC[C@@H](c3nc(-c4ccc(-c5ccc(-c6c[nH]c([C@@H]7CCCN7C(=O)[C@@H](NC(=O)OC)C(C)C)n6)cc5)cc4)c[nH]3)N2C1=O", "note": "[Compound 804]", "pEC50": "> 8.00"}
{"smiles": "COC(=O)N[C@H]1CC[C@H]2CC[C@@H](c3nc(-c4ccc(-c5ccc(-c6c[nH]c([C@]7(C)CCCN7C(=O)[C@@H](NC(=O)OC)C(C)C)n6)cc5)cc4)c[nH]3)N2C1=O", "note": "[Compound 805]", "pEC50": "7.00 to 8.00"}
{"smiles": "COC(=O)N[C@H]1CCC[C@@H]2CC[C@@H](c3nc(-c4ccc(-c5ccc(-c6c[nH]c([C@@H]7CCCC7C(=O)[C@@H](NC(=O)OC)C(C)C)n6)cc5)cc4)c[nH]3)N2C1=O", "note": "(stereo partly drawn) [Compound 806]", "pEC50": "> 8.00"}
{"smiles": "COC(=O)N[C@H]1CCC[C@H]2CC[C@@H](c3nc(-c4ccc(-c5ccc(-c6c[nH]c([C@@H]7CCCN7C(=O)[C@@H](NC(=O)OC)C(C)C)n6)cc5)cc4)c[nH]3)N2C1=O", "note": "[Compound 807]", "pEC50": "> 8.00"}
